In patent US20150224085A1, “METHOD OF ADMINISTERING A 5,5-FUSED HETEROARYLENE HEPATITIS C VIRUS INHIBITOR FOR TREATING OF PREVENTING HEPATITIS C VIRUS INFECTION” (priority 2012, published 2015):

Experiments:
[1] = clinical; settings: human, in vivo
Experimental: (§1) The phase I/IIa study was designed to evaluate safety and tolerability, pharmacokinetics (PK), food effect, and antiviral activity with regard to the Compound. The key safety parameters that were evaluated in the trial include adverse events (AEs), physical examination, vital signs, 12-lead electrocardiogram (ECG), and standard safety laboratory tests. The key antiviral activity parameters that were evaluated in the trial include changes in plasma HCV RNA and emergence of resistance mutations. The key pharmacokinetic parameters that were evaluated in the trial include plasma and urine concentrations of the Compound.
(§2) In the phase I/IIa study, plasma HCV RNA was quantitated using a validated commercial assay (COBAS® TAQMAN®) with a lower limit of quantitation of 25 IU/mL. HCV RNA genotyping was performed at Baseline using the Versant HCV Genotype Assay (LiPA) 2.0.
(§3) In Group B, the Compound was evaluated in an open-label, single day study in 18 subjects with chronic HCV Genotype 1, 2, or 3 infection. […] For all cohorts, dosing was under fasted in this study.

[2] = tested on: HCV Genotype 2; assay: Phase I/IIa Group B: plasma HCV RNA reduction after single dose, Genotype 2; format: in vivo, hepatitis C virus; settings: 1 subject
Experimental: as §1, §2, §3

## COC(=O)N[C@H](C(=O)N1CCC[C@H]1c1nc2cc(-c3csc4c(-c5ccc(-c6cnc([C@@H]7CCCN7C(=O)[C@H](NC(=O)OC)c7ccccc7)[nH]6)cc5)csc34)ccc2[nH]1)C(C)C [the Compound, [(S)-1-((S)-2-{6-[6-(4-{(S)-2-[1-((R)-2-methoxycarbonylamino-2-phenyl-acetyl)-pyrrolidin-2-yl]-3H-imidazol-4-yl}-phenyl)-thieno[3,2-b]thiophen-3-yl]-1H-benzoimidazol-2-yl}-pyrrolidine-1-carbonyl)-2-methyl-propyl]-carbamic acid methyl ester]
[1]
  exposure versus dose: Dose proportional exposure
[1]; 1 mg
  AUC(0-inf): 8 ± 5.8 ng·h/mL
  Cmax: 0.5 ± 0.4 ng/mL
  Tmax: 4 h
  half-life: 13 ± 6 h
[1]; 5 mg
  AUC(0-inf): 39 ± 14.5 ng·h/mL
  Cmax: 2.2 ± 1.1 ng/mL
  Tmax: 4 h
  half-life: 13 ± 0.5 h
[1]; 10 mg
  AUC(0-inf): 188 ± 3.7 ng·h/mL
  Cmax: 9 ± 1.2 ng/mL
  Tmax: 3 h
  half-life: 24 ± 5.9 h
[1]; 25 mg
  AUC(0-inf): 216 ± 80.6 ng·h/mL
  Cmax: 13.8 ± 3.8 ng/mL
  Tmax: 3.5 h
  half-life: 18 ± 3.8 h
[1]; 50 mg
  AUC(0-inf): 576 ± 299 ng·h/mL
  Cmax: 35.2 ± 16.5 ng/mL
  Tmax: 4 h
  half-life: 22 ± 1.8 h
[1]; 100 mg
  AUC(0-inf): 1340 ± 282 ng·h/mL
  Cmax: 95 ± 20.4 ng/mL
  Tmax: 4 h
  half-life: 19 ± 2 h
[2]; 25 mg single dose
  Maximum Viral Load Reduction after Single Dose: 0.4 log10 IU/mL
[2]; 50 mg single dose
  Maximum Viral Load Reduction after Single Dose: 3.2 log10 IU/mL
[2]; 100 mg single dose
  Maximum Viral Load Reduction after Single Dose: 3.5 log10 IU/mL
